Values of other authors as cited in patent US11154586B2, “Treating sexual dysfunction” (Olive Therapeutics, LLC, priority 2016, dated 2021).

How the values were obtained:
[1] = intranasal, men or couples, single agent

SMILES: CC[C@H](C)[C@@H]1NC(=O)[C@H](Cc2ccc(O)cc2)NC(=O)[C@@H](N)CSSC[C@@H](C(=O)N2CCC[C@H]2C(=O)N[C@@H](CC(C)C)C(=O)NCC(N)=O)NC(=O)[C@H](CC(N)=O)NC(=O)[C@H](CCC(N)=O)NC1=O [oxytocin]
- Effect on sexual function, Case 1 (person, 2 hours after intranasal 16 IU, on progesterone only pill, repeated 2 days later): increased sexual desire, stronger uterine contractions during orgasm, and greater satisfaction
- Effect on sexual function, Case 2 (person, intranasal, off-label for social anxiety, apparently also on lisdexamfetamine): broad spectrum enhancement of the patient's sexual function
- Effect on anorgasmia, Case 3 (person, intranasal, earlier dopamine agonist and growth hormone): sustained restoration of their ability to achieve orgasm
- Effect on sexual function, Case 1, third administration (same person, 2 weeks later, after switch to barrier method): did not produce the same sexual enhancement
- Effect on biological measures of sexual functioning [1]: does not alter biological measures of sexual functioning
